Data reported in US10874107B2, “β-lactamase targeted photosensitizer for pesticide and pest detection” (The General Hospital Corporation, priority 2012, dated 2020).

Key:
[1] = UV-visible and fluorescence emission spectra of prodrug vs. free photosensitizer (TBO); format: physicochemical
[2] = molecular target: β-lactamase from Enterobacter cloacae (Enterobacter cloacae, UniProt P05364); test: Enzyme-mediated cleavage of the prodrug (fluorescence emission); format: biochemical
Source text: FIGS. 6A and B show plots of (a) fluorescence emission vs. wavelength and (b) fluorescence emission vs. time for the Cephalosporanic acid-photosensitizer prodrug, depicting the enzyme-mediated cleavage of the prodrug.
The prodrug obtained was further studied for release of photosensitizer in presence of β-lactamase from Enterobacter cloacae. For the fluorescence emission study of the prodrug, the solvent employed was water, and the excitation wavelength 635 nm in the presence of beta-lactamase enzyme (from Enterobacter cloacae). Time-dependent fluorescence emission was also measured for photosensitizer release from the prodrug in the presence of enzyme. […] Thus, the prodrug was ynthesized and characterized.

β-lactamase from Enterobacter cloacae, sequence (P05364 21-381): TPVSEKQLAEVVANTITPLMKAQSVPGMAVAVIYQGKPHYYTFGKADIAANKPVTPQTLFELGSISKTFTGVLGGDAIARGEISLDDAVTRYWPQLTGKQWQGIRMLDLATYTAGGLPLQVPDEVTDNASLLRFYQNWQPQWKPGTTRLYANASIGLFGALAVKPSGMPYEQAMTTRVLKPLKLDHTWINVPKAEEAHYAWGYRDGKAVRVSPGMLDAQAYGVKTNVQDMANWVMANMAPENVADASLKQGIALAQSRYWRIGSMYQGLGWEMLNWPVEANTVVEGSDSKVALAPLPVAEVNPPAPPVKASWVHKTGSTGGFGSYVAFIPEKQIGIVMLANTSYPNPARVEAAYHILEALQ

Cephalosporanic Acid-Toluidine blueO Prodrug
quenching of the photosensitizer in the conjugated form [1]: quantitative quenching | reduction in fluorescence emission maxima (prodrug vs. TBO) ([1]; 635 nm excitation, ethanol): ~8 fold | shift in the absorption spectra (UV-visible) ([1]; ethanol, 2.0×10^−5 M, vs. TBO): blue shift | lactamase-specific activity [2]: demonstrated lactamase-specific activity | increase in excited stated properties (fluorescence emission) on incubation with enzyme ([2]; water, excitation 635 nm, within minutes of incubation with β-lactamase): ~5 fold
